{"source": "patent US20170340584A1", "about": "(priority 2014, published 2017)", "key": {"[1]": {"test": "Body weight and body weight gain of high-fat diet mice", "format": "in vivo, mice (C57BL/6)", "settings": "sample in drinking water, metformin 250 mg/kg", "protocol": "(§1) Using 8-week-old male mice (C57BL/6) (purchased from CoreTech), anti-diabetic candidate materials were evaluated using a GTT (Glucose Tolerance Test) that is a typical method for diagnosis of diabetes.\n(§2) Mice were housed at a temperature of 22±2° C. and a relative humidity of 55-60% with 12-hr light/12-hr dark cycles. Five animals were allotted to each group, and mice from the same mother were grouped into one group, because male mice tend to fight together.\n(§3) As feed, high-fat diet (60% of calories from fat; Research Diet Inc., New Brunswick, N.J.) and water were fed ad libitum for 10 weeks. Herein, the water fed contained the samples prepared in Examples 1-2 (3), 2-1, 2-4-1, 2-4-2 and 2-5. As a positive control, metformin (M-072, Sigma) (250 mg/kg) was used, and as a control, the samples prepared in Comparative Examples 1-1, 2-3-2, 2-5-1, 2-5-2 and 2-6 were used.\n(§4) For reference, each of the samples prepared in Examples 2-4-1, 2-4-2 and 2-5 was set to the amount to be taken by an adult (60 kg) for 3 days, and the amount was converted into a mouse dose (12-fold/kg, see the US NIH guidance), thereby preparing animal feed. Namely, the amount to be taken by an adult (60 kg) for 3 days is 180-day dose/kg, which corresponds to 15-day dose/kg for mice. Thus, the amount corresponds to 750-day dose/mouse (20 g), because the average weight of mice is about 20 g. Thus, one mouse was allowed to take 1/750 of the prepared sample each day.\n(§5) In addition, each of the samples prepared in Examples 1-2 (3) and 2-1 was set to the amount to be taken by an adult (60 kg) for 2 days, and the amount was converted into a mouse dose (12-fold/kg, see the US NIH guidance), thereby preparing animal feed. Namely, the amount to be taken by an adult (60 kg) for 2 days is 120-day dose/kg, which corresponds to 10-day dose/kg for mice. Thus, the amount corresponds to 500-day dose/mouse (20 g), because the average weight of mice is about 20 g. Thus, one mouse was allowed to take 1/500 of the prepared sample each day.\nThe diet intake and the body weight gain were measured weekly for 8 weeks. The body weight and the diet intake were measured immediately before first drug administration, and then measured at one-week intervals.\n(§6) Meanwhile, experimental analysis results were expressed as mean±S.E.M., and the significance between test groups was statistically processed using Student T-TEST, and then the significance was verified at *P<0.05."}, "[2]": {"test": "Glucose tolerance test (GTT) in high-fat diet mice", "format": "in vivo, mice (C57BL/6)", "settings": "for Glucose level (mg/dl), Mean: GTT, high-fat diet mice", "protocol": "as §1, §2, §3, §4, §5\nAt 8 weeks of high-fat diet feeding, a glucose tolerance test (GTT) was performed. For 8 hours for the test, mice were fasted. Then, blood was sampled from the tail vein, and initial blood glucose levels were measured with a blood glucose meter (AUTO-CHEK, Diatech Korea). Then, glucose was administered intraperitoneally to the mice at a concentration of 1 g/kg, and after 30 min, 60 min, 90 min and 120 min, blood was sampled from the mice, followed by measurement of blood glucose levels (each group consisting of five animals).\nas §6"}, "[3]": {"test": "Blood biochemistry (triglyceride, AST, ALT) in high-fat diet mice", "format": "in vivo, mice (C57BL/6)", "protocol": "as §1, §3\nIn blood biochemistry, insulin (AKRIN-011T, Shibayagi, Japan), glucose (AM202, Asan Pharmaceutical Co., Ltd., Korea), triglyceride (AM157, Asan Pharmaceutical Co., Ltd.), total cholesterol (AM202, Asan Pharmaceutical Co., Ltd.), AST and ALT (Asan Pharmaceutical Co., Ltd.) were analyzed using enzymatic assay kits.\n(§7) At 10 weeks of high-fat diet feeding, the mice were sacrificed by cervical dislocation to obtain serum. For histological examination, the liver, white adipose tissue (WAT), brown adipose tissue (BAT) and kidney were fixed with formalin (50-00-0, Junsei, Japan), and the remaining organs were stored at −70° C. The blood sampled from the heart was coagulated to obtain serum which was then stored at −70° C.\nas §6"}, "[4]": {"system": "liver, white adipose tissue (WAT), brown adipose tissue (BAT) and kidney", "test": "Histological examination of high-fat diet mice", "format": "in vivo, mice (C57BL/6)", "settings": "10 weeks of high-fat diet feeding", "protocol": "as §7\nFor histological examination, the major organs and adipose were fixed in 4% neutral buffered formalin and embedded in paraffin blocks, and the paraffin blocks were sectioned at 5 μm and stained with hymatoxylin (MHS-16, Sigma-Aldrich, USA) and eosin (HT110116, Sigma-Aldrich). The prepared tissue samples were mounted in glycerin gel mounting media (SP15-100, Fisher Scientific, USA), covered with cover glass, and observed with a microscope (IX71, OLYMPUS, USA). The tissue was imaged with the camera equipped in the microscope."}, "[5]": {"test": "Scanning electron microscope (SEM) analysis, particle size", "format": "physicochemical", "description": "For reference, an analysis instrument and analysis conditions are as follows. (1) Analysis instrument: HITACHI (S-2700), Japan (2) Electron gun: Tungsten filament type (3) Resolution: 4.0 nm (4) Accelerating voltage: 15.0 kV."}, "[6]": {"test": "Thermogravimetric analysis (TGA)", "format": "physicochemical", "settings": "first-order differentiation of TGA; N2, 20° C./min", "protocol": "For reference, an analysis instrument and analysis conditions are as follows. (1) Analysis instrument: TGA 7 (Perkin-Elmer) (2) Atmosphere: N2 gas (3) Heating rate: 20° C./min (4) Range: 50 to 600° C."}}}
{"smiles": "NCCS(=O)(=O)O", "note": "[DT15, modified taurine]", "values": [{"measurement": "Body weight gain, Mean", "setting": "[1]; 1 week", "result": 2.65, "unit": "g"}, {"measurement": "Body weight, Mean", "setting": "[1]; 1 week", "result": 20.30, "unit": "g"}, {"measurement": "Body weight gain, Mean", "setting": "[1]; 2 weeks", "result": 4.40, "unit": "g"}, {"measurement": "Body weight, Mean", "setting": "[1]; 2 weeks", "result": 22.05, "unit": "g"}, {"measurement": "Body weight gain, Mean", "setting": "[1]; 3 weeks", "result": 6.28, "unit": "g"}, {"measurement": "Body weight, Mean", "setting": "[1]; 3 weeks", "result": 23.93, "unit": "g"}, {"measurement": "Body weight gain, Mean", "setting": "[1]; 4 weeks", "result": 7.53, "unit": "g"}, {"measurement": "Body weight, Mean", "setting": "[1]; 4 weeks", "result": 25.18, "unit": "g"}, {"measurement": "Body weight gain, Mean", "setting": "[1]; 5 weeks", "result": 8.38, "unit": "g"}, {"measurement": "Body weight, Mean", "setting": "[1]; 5 weeks", "result": 26.03, "unit": "g"}, {"measurement": "Body weight gain, Mean", "setting": "[1]; 6 weeks", "result": 10.25, "unit": "g"}, {"measurement": "Body weight, Mean", "setting": "[1]; 6 weeks", "result": 27.90, "unit": "g"}, {"measurement": "Body weight gain, Mean", "setting": "[1]; 7 weeks", "result": 11.10, "unit": "g"}, {"measurement": "Body weight, Mean", "setting": "[1]; 7 weeks", "result": 28.75, "unit": "g"}, {"measurement": "Body weight, Mean", "setting": "[1]; 8 weeks", "result": 29.23, "unit": "g"}, {"measurement": "Body weight, Mean", "setting": "[1]; before administration", "result": 17.65, "unit": "g"}, {"measurement": "Glucose level (mg/dl), Mean", "setting": "[2]; 0 min", "result": 121.25, "unit": "mg/dL"}, {"measurement": "Glucose level (mg/dl), Mean", "setting": "[2]; 30 min", "result": 335.25, "unit": "mg/dL"}, {"measurement": "Glucose level (mg/dl), Mean", "setting": "[2]; 60 min", "result": 295.25, "unit": "mg/dL"}, {"measurement": "Glucose level (mg/dl), Mean", "setting": "[2]; 90 min", "result": 193.75, "unit": "mg/dL"}, {"measurement": "Glucose level (mg/dl), Mean", "setting": "[2]; 120 min", "result": 126.25, "unit": "mg/dL"}, {"measurement": "Fasting glucose level", "setting": "[2]; at 8 weeks of high-fat diet feeding, 8 hours fasted", "result": "lower than that of the mice administered with high-fat diet (HFD), and were similar to the blood glucose levels of normal mice"}, {"measurement": "Glucose control ability in GTT", "setting": "[2]; at 8 weeks of high-fat diet feeding, glucose 1 g/kg intraperitoneally, 30-120 min", "result": "significantly higher than that of the group administered with HFD alone"}, {"measurement": "ALT level", "setting": "[3]", "result": "lower than those of DT19"}, {"measurement": "AST level", "setting": "[3]", "result": "lower than those of DT19"}, {"measurement": "Triglyceride level", "setting": "[3]", "result": "significantly lower than that of DT19 (taurine)"}, {"measurement": "ALT level (IU/L), Mean", "setting": "[3]; blood", "result": 14.02, "unit": "IU/L"}, {"measurement": "AST level (IU/L), Mean", "setting": "[3]; blood", "result": 98.96, "unit": "IU/L"}, {"measurement": "Triglyceride level (mg/dl), Mean", "setting": "[3]; blood", "result": 53.62, "unit": "mg/dL"}, {"measurement": "Accumulation of adipose in brown adipose tissue", "setting": "[4]", "result": "decreased"}, {"measurement": "Development of fatty liver", "setting": "[4]", "result": "decreased"}, {"measurement": "Nephrotoxicity", "setting": "[4]; kidney tissue", "result": "did not appear"}, {"measurement": "Average particle size", "setting": "[5]", "result": 190.84, "unit": "μm"}, {"measurement": "Median particle size", "setting": "[5]", "result": 122.47, "unit": "μm"}, {"measurement": "Final decomposition temperature", "setting": "[6]", "result": 396, "unit": "°C"}, {"measurement": "First decomposition temperature", "setting": "[6]", "result": 359, "unit": "°C"}]}
